This note sets out measurements from ChEMBL document CHEMBL1201862, “PubChem BioAssay data set” (2004).

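In this assay, cells in 96-well plates receive the compound at five concentrations for 48 hours. Endpoints are linearly interpolated between the surrounding concentrations. Here, GI50 denotes the concentration required for 50% inhibition of growth.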 Calls of active or inactive are those of the source. Cut-off read from the data, not from the text of the source: active = GI50 up to about 1.1 µM and inactive = higher.

Among the test systems are Hs-578T; UO-31; RXF 393; SF-268; UACC-257; HCT-15; TK-10; BT-549; U-251; T47D; SR; HCT-116; OVCAR-5; CCRF-CEM; KM12; DU-145; SK-OV-3; CAKI-1; MDA-MB-231; RPMI-8226.
Holding throughout (experiment): NCI anticancer screen, dose series, 48 h

Regarding `C[N+](C)(C)CC(=O)N/N=C(\C(=O)NC1=C(Cl)C(=O)c2ccccc2C1=O)C(C#N)c1nc(-c2ccc([N+](=O)[O-])cc2)cs1` (stereo not given), the GI50 in the assay with Hs-578T was 7.85 µM (inactive); with UO-31, 15.6 µM (inactive); in the assay on RXF 393, 11.2 µM (inactive); in the assay with SF-268 it was 12.3 µM (inactive); in the assay on UACC-257, 3.18 µM (inactive); in the assay on HCT-15 it was 5.36 µM. Moreover, the GI50 was 31 µM (inactive) with TK-10; 3.77 µM (inactive) in the assay on BT-549; 6.97 µM (inactive) in the assay with U-251; 5.85 µM (inactive) in the assay on T47D; 5.62 µM (inactive) in the assay on SR; 5.78 µM (inactive) in the assay on HCT-116. The GI50 with OVCAR-5 was 13.1 µM (inactive); in the assay with CCRF-CEM, 8.28 µM (inactive); in the assay with KM12, 14.6 µM (inactive); in the assay on DU-145 it was 6.08 µM (inactive); with SK-OV-3 it was 21.1 µM (inactive); in the assay on CAKI-1, 26.2 µM (inactive). The GI50 in the assay on MDA-MB-231 was 10.3 µM (inactive); in the assay with RPMI-8226 it was 6.53 µM (inactive).

For `O=[N+]([O-])c1cccc2nc3ccccc3c(NCCc3cccc[n+]3[O-])c12`, the GI50 in the assay on Hs-578T is 0.0782 µM (active); in the assay with UO-31, < 0.0193 µM (active); with RXF 393 it was 0.0196 µM (active); in the assay on SF-268 it was < 0.0476 µM (active); in the assay with UACC-257, < 0.0231 µM (active); in the assay on HCT-15, under 0.0138 µM. Further, the GI50 with TK-10 is < 0.0486 µM (active); with BT-549 it was < 0.0165 µM (active); in the assay with U-251, < 0.038 µM (active); in the assay on T47D, < 0.0378 µM (active); in the assay with SR it was < 0.01 µM (active); with HCT-116, < 0.01 µM (active). In addition, the GI50 in the assay with OVCAR-5 is < 0.0194 µM (active); with CCRF-CEM, < 0.0318 µM (active); in the assay on KM12, < 0.0328 µM (active); with DU-145 it was < 0.01 µM (active); in the assay with SK-OV-3, 0.153 µM (active); in the assay with CAKI-1 it was < 0.0402 µM (active). For the same compound, the GI50 is < 0.01 µM (active) in the assay with MDA-MB-231 and 0.0123 µM (active) in the assay on RPMI-8226.

Take `O=C(O)CP(=O)(O)O`: the GI50 is > 100 µM (inactive) in the assay with Hs-578T; > 100 µM (inactive) in the assay with UO-31; > 100 µM (inactive) with RXF 393; > 100 µM (inactive) in the assay on SF-268; > 100 µM (inactive) in the assay with UACC-257; over 100 µM with HCT-15. Moreover, the GI50 in the assay with TK-10, with BT-549, in the assay on U-251, with T47D, in the assay with SR and in the assay on HCT-116 was > 100 µM (inactive) throughout. For the same compound, the GI50 with OVCAR-5, with CCRF-CEM, with KM12, in the assay with DU-145, with SK-OV-3 and with CAKI-1 was > 100 µM (inactive) in each case. In addition, the GI50 with MDA-MB-231 and in the assay on RPMI-8226 was > 100 µM (inactive) in each case.

Take `CCN(CC)CCn1c(=O)c2cccnc2n2c3c(=O)n(C)c(=O)n(C)c3nc12`: the GI50 is > 100 µM (inactive) in the assay with Hs-578T; 86.1 µM (inactive) in the assay on UO-31; > 100 µM (inactive) in the assay with RXF 393; > 100 µM (inactive) in the assay with SF-268; > 100 µM (inactive) with UACC-257; 11.6 µM with HCT-15. Also, the GI50 in the assay with TK-10 was 23.2 µM (inactive); in the assay on BT-549 it was > 100 µM (inactive); with U-251, > 100 µM (inactive); in the assay with T47D it was > 100 µM (inactive); in the assay on SR, 38.5 µM (inactive); in the assay with HCT-116, 47.8 µM (inactive). Moreover, the GI50 in the assay on OVCAR-5 was > 100 µM (inactive); in the assay on CCRF-CEM, 64.6 µM (inactive); in the assay on KM12 it was > 100 µM (inactive); in the assay on DU-145, > 100 µM (inactive); in the assay with SK-OV-3, > 100 µM (inactive); in the assay on CAKI-1, 67.9 µM (inactive). Further, the GI50 in the assay with MDA-MB-231 and with RPMI-8226 was > 100 µM (inactive) throughout.

As to `O=C1/C(=C/c2ccc3c(c2)OCO3)CCC1CN1CCOCC1` (stereo not given), the GI50 in the assay on Hs-578T is 3.84 µM (inactive); with UO-31, 15.8 µM (inactive); in the assay on RXF 393, 11.4 µM (inactive); in the assay with SF-268 it was 10.5 µM (inactive); with UACC-257, 9.68 µM (inactive); in the assay on HCT-15, 2.94 µM. Further, the GI50 in the assay with TK-10 was 12.4 µM (inactive); with BT-549, 18 µM (inactive); in the assay with U-251, 7.05 µM (inactive); with T47D, 3.98 µM (inactive); with SR it was 1.65 µM (inactive); in the assay on HCT-116 it was 3.25 µM (inactive). Also, the GI50 is 14 µM (inactive) in the assay on OVCAR-5; 1.54 µM (inactive) in the assay with CCRF-CEM; 4.65 µM (inactive) in the assay with KM12; 16 µM (inactive) in the assay with DU-145; 18.4 µM (inactive) with SK-OV-3; 3.25 µM (inactive) with CAKI-1. In addition, the results for the GI50 in the assay on MDA-MB-231 and in the assay with RPMI-8226 were 3.36 µM (inactive) and 0.436 µM (active), respectively.

In the case of `COc1ccc(Cc2ccccc2C(=O)O)c2ccccc12`, the GI50 in the assay with Hs-578T is 12.1 µM (inactive); in the assay with UO-31, 32.1 µM (inactive); in the assay on RXF 393 it was 44.3 µM (inactive); in the assay on SF-268 it was 22.8 µM (inactive); in the assay with UACC-257, 24.7 µM (inactive); in the assay on HCT-15 it was 28.2 µM. Besides, the GI50 is 24 µM (inactive) in the assay on TK-10; 39.2 µM (inactive) with BT-549; 25.7 µM (inactive) in the assay on U-251; 44.4 µM (inactive) with T47D; 31.5 µM (inactive) with SR; 20.7 µM (inactive) in the assay with HCT-116. The GI50 is 24.3 µM (inactive) with OVCAR-5; 26.1 µM (inactive) in the assay on CCRF-CEM; 18.7 µM (inactive) in the assay with KM12; 37.5 µM (inactive) in the assay on DU-145; 40.6 µM (inactive) in the assay with SK-OV-3; 35.3 µM (inactive) in the assay with CAKI-1. Moreover, the GI50 in the assay with MDA-MB-231 was 32 µM (inactive); in the assay on RPMI-8226, 29.4 µM (inactive).

In the case of `Cc1cn(CCCCOC(=O)NC(CCCNC(N)=O)C(=O)O)c(=O)[nH]c1=O` (stereo not given), the GI50 in the assay on Hs-578T is > 100 µM (inactive); with UO-31, > 100 µM (inactive); in the assay on RXF 393 it was > 100 µM (inactive); with SF-268 it was > 100 µM (inactive); in the assay with UACC-257, > 100 µM (inactive); in the assay with HCT-15, over 100 µM. Further, the GI50 in the assay on TK-10, with BT-549, in the assay on U-251, in the assay with T47D, in the assay on SR and with HCT-116 was > 100 µM (inactive) each time. In addition, the GI50 in the assay on OVCAR-5, with CCRF-CEM, in the assay with KM12, in the assay on DU-145, in the assay on SK-OV-3 and in the assay with CAKI-1 was > 100 µM (inactive) each time. Further, the GI50 with MDA-MB-231 and with RPMI-8226 was > 100 µM (inactive) throughout.

As for `Cc1cc2c(=Cc3ccc(N(C)C)cc3)c3ccccc3n2[n+]1C`, the GI50 is 0.628 µM (active) in the assay on Hs-578T; 3.01 µM (inactive) in the assay with UO-31; 2.09 µM (inactive) in the assay with RXF 393; 0.537 µM (active) with SF-268; 0.207 µM (active) with UACC-257; 12.3 µM in the assay on HCT-15. Besides, the GI50 with TK-10 is 1.3 µM (inactive); in the assay on BT-549, 0.537 µM (active); in the assay on U-251 it was 0.203 µM (active); in the assay on T47D, 0.282 µM (active); in the assay with SR, 0.0865 µM (active); in the assay with HCT-116, 0.365 µM (active). Moreover, the GI50 was 5.87 µM (inactive) with OVCAR-5; 0.944 µM (active) with CCRF-CEM; 0.385 µM (active) in the assay with KM12; 0.713 µM (active) in the assay with DU-145; 1.44 µM (inactive) with SK-OV-3; 3.3 µM (inactive) in the assay on CAKI-1. Besides, the results for the GI50 in the assay with MDA-MB-231 and in the assay with RPMI-8226 were 0.847 µM (active) and 0.107 µM (active), respectively.

With `CCOP(=O)(OCC)/C(F)=C/c1ccccc1`, the GI50 in the assay with Hs-578T was > 100 µM (inactive); in the assay with UO-31 it was 95.9 µM (inactive); in the assay with RXF 393, > 100 µM (inactive); in the assay with SF-268 it was > 100 µM (inactive); in the assay on UACC-257, > 100 µM (inactive); with HCT-15, over 100 µM. Besides, the GI50 in the assay on TK-10, with BT-549, with U-251, in the assay on T47D, in the assay on SR and in the assay on HCT-116 was > 100 µM (inactive) in each case. Moreover, the GI50 with OVCAR-5, with CCRF-CEM, in the assay on KM12, in the assay with DU-145, in the assay on SK-OV-3 and with CAKI-1 was > 100 µM (inactive) each time. In addition, the GI50 in the assay with MDA-MB-231 and with RPMI-8226 was > 100 µM (inactive) in each case.

On to `CSc1ncnc2c1ncn2C1OC(CO)C(O)OC1O` (stereo not given), for which the GI50 with Hs-578T was 20.9 µM (inactive); with UO-31, 1.79 µM (inactive); in the assay on RXF 393, 11.7 µM (inactive); in the assay on SF-268, 7.69 µM (inactive); with UACC-257, 0.902 µM (active); in the assay on HCT-15, 0.506 µM. The GI50 was 0.219 µM (active) in the assay with TK-10; 1.83 µM (inactive) with BT-549; 9.35 µM (inactive) with U-251; 0.612 µM (active) in the assay on T47D; 0.619 µM (active) in the assay with SR; 0.4 µM (active) in the assay on HCT-116. In addition, the GI50 is 2.01 µM (inactive) in the assay with OVCAR-5; 0.0579 µM (active) in the assay with CCRF-CEM; 0.789 µM (active) with KM12; 0.697 µM (active) in the assay on DU-145; 20 µM (inactive) in the assay on SK-OV-3; 2.58 µM (inactive) in the assay with CAKI-1. Besides, the GI50 in the assay on MDA-MB-231 is 0.396 µM (active); in the assay with RPMI-8226 it was 1.06 µM (active).
